ChEMBL document CHEMBL5126587 (Bioorg Med Chem, 2022)
pIC50: −log10 of the molar value. The source made the active and inactive calls. The calls are words filed in the database; no cut-off is given here. Numbered stars: 1 amine (or outer) side, 2 acyl side, 3 side chain; on linkers, the order of the positions; unused ones are H or OH. Peptide text beside a SMILES is read from it. * marks the point of attachment. X1 = NC(=O)c1n[nH]nc1[C@@H]1O[C@H](COC(=O)CCC(=O)NCCCOCCOCCOCCCN*)[C@@H](O)[C@H]1O; Suc = O=C(CCC(=O)[*:2])[*:1]

Columns and labels:
Zika virus [1] = assay type: functional
Hepatitis C virus [2] = assay type: functional, Hepacivirus hominis, genotype 2a (JFH-AM71), Huh7-J20; settings: dose 100 µM; time 72 hrs
in vitro [3] = settings: human, Huh7-J20 cells
Hepatitis C virus [4] = experiment: microbe, parasite or virus in culture; settings: genotype 2a (JFH-AM71), Huh7-J20, 72 h
Zika virus [5] = assay type: functional, H/PAN/2016/BEI-259634, Vero
in vitro [6] = settings: monkey, Vero cells
in vitro [7] = settings: human, Huh7.5 cells
Zika virus [8] = experiment: microbe, parasite or virus in culture; settings: H/PAN/2016/BEI-259634, Huh7.5, 72 h
Zika virus [9] = experiment: microbe, parasite or virus in culture; settings: H/PAN/2016/BEI-259634, Vero, 72 h
Hepatitis C virus [10] = assay type: functional, Hepacivirus hominis, genotype 2a (JFH-AM71), Huh7-J20; settings: dose 0.045 µM; time 72 hrs
Zika virus [11] = assay type: functional, H/PAN/2016/BEI-259634, Huh7.5; settings: dose 50-100 µM; time 3 day; at 50 to 100 µM
Zika virus [12] = assay type: functional, H/PAN/2016/BEI-259634, Vero; settings: dose 50-100 µM; time 3 day; at 50 to 100 µM
[13] = H/PAN/2016/BEI-259634, Huh7.5, dose 100.0 µM, time 3.0 day

Row | SMILES | Activity (Zika virus [1]; [13]) | Activity (Hepatitis C virus [2]) [%] | selectivity ratio (in vitro [3]) | pIC50 (Hepatitis C virus [4]) | Activity (Zika virus [5]; dose 100 µM, time 3 day) [%] | other results
1 | CC(=O)OC[C@H]1O[C@@H](c2n[nH]nc2C(N)=O)[C@H](OC(C)=O)[C@@H]1OC(C)=O | Active |  |  |  |  | 
2 | CCCNC(=O)c1n[nH]nc1[C@@H]1O[C@H](CO)[C@@H](O)[C@H]1O | Active | 45 | 7.3 | 4.00 |  | 
3 | NC(=O)c1n[nH]nc1[C@@H]1O[C@H](CO)[C@@H](O)[C@H]1O |  | 60 | 15.7 | 4.17 | 20 | 
4 | NC(=O)c1ncn([C@@H]2O[C@H](CO)[C@@H](O)[C@H]2O)n1 [RIBAVIRIN] |  | 80 | 46.8 | 4.66 | 80 | Activity (Zika virus [1]; dose 100 µM, time 3 day): 80%; selectivity ratio (in vitro [6]): 41.6; selectivity ratio (in vitro [7]): 240; pIC50 (Zika virus [8]): 5.16; pIC50 (Zika virus [9]): 4.52
5 | CC[C@H](C)[C@H](NC(=O)[C@H](Cc1cnc[nH]1)NC(=O)[C@H](Cc1c[nH]c2ccccc12)NC(=O)[C@H](CO)NC(=O)CCC(=O)NCCCOCCOCCOCCCNC(=O)CCC(=O)OC[C@H]1O[C@@H](c2n[nH]nc2C(N)=O)[C@H](O)[C@@H]1O)C(=O)N[C@@H](CC(N)=O)C(=O)N[C@@H](CCCNC(=N)N)C(=O)N[C@H](C(=O)N[C@@H](C)C(=O)N[C@@H](CC(C)C)C(=O)N[C@@H](CC(N)=O)C(=O)N[C@@H](CO)C(=O)N[C@@H](CC(N)=O)C(=O)N[C@@H](CC(=O)O)C(=O)N[C@@H](CO)C(N)=O)[C@@H](C)O ({X1-Suc}-SWHINRTALNSNDS-NH2) |  |  |  |  |  | Activity (Hepatitis C virus [10]): 45%
6 | O=C(NCCCO)c1n[nH]nc1[C@@H]1O[C@H](CO)[C@@H](O)[C@H]1O |  | 45 | 13.4 | 4.17 | 20 | 
7 | O=C(NO)c1n[nH]nc1[C@@H]1O[C@H](CO)[C@@H](O)[C@H]1O | Active | 67 | 16.8 | 4.31 |  | Activity (Zika virus [5]; H/PAN/2016/BEI-259634, Vero, dose 100.0 µM, time 3.0 day): Active; Activity (Zika virus [11]): 70%; Activity (Zika virus [12]): 70%; selectivity ratio (in vitro [6]): 29.1; selectivity ratio (in vitro [7]): 23.8; pIC50 (Zika virus [8]): 4.43; pIC50 (Zika virus [9]): 4.48
8 | N=C(N)NCCC[C@H](NC(=O)[C@H](CCCNC(=N)N)NC(=O)[C@H](CCCNC(=N)N)NC(=O)[C@H](CCC(N)=O)NC(=O)[C@H](CCCNC(=N)N)NC(=O)[C@H](CCCNC(=N)N)NC(=O)[C@H](CCCCN)NC(=O)[C@H](CCCCN)NC(=O)[C@H](CCCNC(=N)N)NC(=O)CNC(=O)[C@H](Cc1ccc(O)cc1)NC(=O)CCC(=O)NCCCOCCOCCOCCCNC(=O)CCC(=O)OC[C@H]1O[C@@H](c2n[nH]nc2C(N)=O)[C@H](O)[C@@H]1O)C(N)=O |  |  |  |  |  | Activity (Hepatitis C virus [10]): 45%
